The record followed here is PubChem BioAssay AID1963840 (Molecular Pharmacology Branch, DTP, NCI, 2024).

Values joined by “and” are separate entries in the source; they are usually repeats but may differ in a detail not shown here. Identical values can stand only once. A value given as a limit tells only on which side of the number the result lay.

This test concerns 695427-040-R-J1-PDC complex spheroid viability. The test is described as follows: Anticancer human tumor 695427-040-R-J1-PDC patient-derived colon adenocarcinoma cell line growth inhibition [POLQ]. Particulars: for viability, T/C: stronger effect = lower value. How it is done:
Multicellular complex tumor spheroid response to Polymerase (POL) inhibitors (novobiocin, ART-558, RP6685) in combination with a variety of drugs and investigational agents in selected tumor cell lines
The POL inhibitors (novobiocin, ART-558, and RP6685) were evaluated both individually and in combination with standard of care and investigational anticancer small molecules within a complex spheroid model of solid tumors. . Complex spheroids include a stromal component modeled by human endothelial cells (HUVEC) and fibroblasts modeled by human mesenchymal stem cells (MSCs). The concentration ranges selected for each drug and investigational agent were based upon clinically achievable concentrations if the clinical Cmax of the agent was known.
Compounds. The drugs and investigational agents: novobiocin (NSC847541), ART-558 (NSC835418), RP-6685 (NSC848927), peposertib (NSC802822), ceralasertib (NSC780249), elimusertib (NSC800525), camonsertib (NSC841442), AZD-1390 (NSC803789), olaparib (NSC753686), talazoparib (NSC767125), rucaparib (NSC756644), sotorasib (NSC818433), MRTX-1133 (NSC836407), SN-38 (NSC673596), topotecan (NSC609699), epotoside (NSC141540), doxorubicin (NSC123127), gemcitabine (NSC613327), 5-fluorouracil (NSC19893), paclitaxel (NSC125973), vemurafenib (NSC761431), MSA-2 (NSC828583), SN-011 (NSC837082), adavosertib (NSC754352), prexasertib (NSC758257), carboplatin (NSC241240) and oxaliplatin (NSC266046), were obtained from the National Cancer Institute (NCI) Developmental Therapeutics Program Chemical Repository (21). The FDA-approved anticancer drug set is available from the Developmental Therapeutics Program at https://dtp.cancer.gov/organization/dscb/obtaining/. […] The stock solutions were prepared in dimethyl sulfoxide (DMSO, Sigma-Aldrich, St. Louis, MO, cat. D2650), except for the platinum compounds which were prepared in saline (Quality Biological, Gaithersburg, MD, cat. 114-055-101), at 800-fold the tested concentration and stored at -70 degrees C prior to their use. All drugs and investigational agents were tested over a range starting from a high concentration at or near the clinical Cmax and decreasing in half-log increments. If the clinical Cmax for an agent had not been determined, the highest concentration tested was 10 microM, except for SN-38, which was tested at a high concentration of 1 microM.
Cell Culture. All cells were maintained in an incubator at 37 degrees C and 5% CO2 with 95% humidity. The PDC lines were cultured according to standard operating procedures established by the NCI PDMR (https://pdmr.cancer.gov). Table 3 of the manuscript, lists the cell lines along with the number of the three cell types plated to form the mct-spheroids and media for tumor cell growth. After thawing, all PDC lines, except 997537-175-T-J1-PDC and 415267-285-R-J2-PDC, were cultured in Matrigel-coated flasks prepared with a working solution of 1X Ham's F-12 nutrient mix, without supplementation (Thermo Fisher Scientific, cat. 11765054), 100 U/mL penicillin-streptomycin (Thermo Fisher Scientific, cat. 15140122), and 2.5% Matrigel (Corning Inc., Corning, NY, cat. 354248) for the first three passages. The two PDC lines 997537-175-T-J1-PDC and 415267-285-R-J2-PDC were cultured on uncoated flasks. The 857933-349-R-J2-PDC line was cultured in 6C/Colon 1B media containing advanced DMEM/F-12 (Thermo Fisher Scientific, cat. 12634028), 10 mM HEPES (Thermo Fisher Scientific, cat. 15630080), 1X GlutaMAX supplement (Thermo Fisher Scientific, cat. 35050061), 0.1 mg/mL primocin (InvivoGen, San Diego, CA, cat. ant-pm-2), 10% defined fetal bovine serum, heat inactivated (HyClone Laboratories Inc., Logan, UT, cat. SH30070.03HI), 50% L-WRN conditioned media (ATCC, cat. CRL-3276), 1.25 mM N-Acetyl-L-cysteine (Sigma-Aldrich, cat. A9165), 10 mM nicotinamide (Sigma-Aldrich, cat. N0636), 1X B-27 supplement (Thermo Fisher Scientific, cat. 17504044), 1X N-2 supplement (Thermo Fisher Scientific, cat. […]

[1] abbreviates: compound alone, run of 11/06/2023.
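Further: spheroids exposed to compounds for seven days.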

The term viability, T/C denotes the ratio of treated to control. As usually defined, the IC50 is the concentration that inhibits the measured activity by half. Consider `COc1ccc([C@@H](O)c2cc(-c3ncnc4cc(N5CCOCC5)ccc34)c(F)cc2Cl)nn1`, for which the viability, T/C runs as follows: (compound 0.0316 µM) 108% and 103% (2×); (compound 0.1 µM) 91.8% and 86.1% and 99.5%; (compound 0.316 µM) 92.8% and 93.3% and 97.7%; (compound 1 µM) 91.9% and 94.2% and 96.2%; (compound 3.16 µM) 80.1% and 82.6% and 85%; (compound 10 µM) 50% and 59% and 56.5%. Besides, the IC50 (curve of compound) was > 10 µM.

Turning to `COc1cccc(OCCCN)c1-c1cc(Nc2cnc(C#N)cn2)n[nH]1`, the viability, T/C by setting is: (compound 0.00316 µM) 94.2% and 94.8% and 102%; (compound 0.01 µM) 84.4% and 93.3% and 91.1%; (compound 0.0316 µM) 80.9% and 87.1% and 92.6%; (compound 0.1 µM) 76% and 75.7% and 85.2%; (compound 0.316 µM) 53.1% and 74.3% and 72.6%; (compound 1 µM) 37.3% and 50.5% and 55.4%. Also, for the setting “curve of compound”, the IC50 was 0.448 µM and > 1 µM.

In the case of `COc1cccc2c1C(=O)c1c(O)c3c(c(O)c1C2=O)CC(O)(C(=O)CO)CC3OC1CC(N)C(O)C(C)O1` (centres undefined), the viability, T/C (compound 0.0316 µM) is 87.5% and 98.1% and 92.7%; the viability, T/C (compound 0.1 µM) was 96.2% and 87.2% and 90.7%; the viability, T/C (compound 0.316 µM) was 95% and 96.7% and 101%; the viability, T/C (compound 1 µM) was 71.2% and 89.7% and 82.5%; the viability, T/C (compound 3.16 µM) was 66% and 74% and 68.7%; the viability, T/C (compound 10 µM) is 57.1% and 69.8% and 53.8%. In addition, the IC50 (curve of compound) is > 10 µM.

`Cc1cccc(N(C)C(=O)C2C(O)CCN2c2nc(C)cc(C(F)(F)F)c2C#N)c1` (centres undefined): the viability, T/C runs as follows: (compound 0.0316 µM) 102% [middle of 13 runs]; (compound 0.1 µM) 101% [middle of 13 runs]; (compound 0.316 µM) 100% [middle of 13 runs]; (compound 1 µM) 100% [middle of 13 runs]; (compound 3.16 µM) 99% [middle of 13 runs]; (compound 10 µM) 100% [middle of 13 runs]. Further, the IC50 (compound alone, run of 10/31/2023) was > 10 µM and the half-maximal inhibitory concentration (IC50) under setting [1] was > 10 µM.

On to `Cn1ncnc1[C@H]1c2n[nH]c(=O)c3cc(F)cc(c23)N[C@@H]1c1ccc(F)cc1`, for which the viability, T/C is 105% and 96.4% and 102% (compound 0.000316 µM); 97.7% and 91% and 93.6% (compound 0.001 µM); 109% and 102% and 99.2% (compound 0.00316 µM); 101% and 109% and 104% (compound 0.01 µM); 106% and 113% and 101% (compound 0.0316 µM); 89.5% and 97.1% and 94.2% (compound 0.1 µM). Besides, where the note is “curve of compound”, the IC50 was > 0.1 µM.

Consider `Nc1ccc(C#CCN(C(=O)Cc2ncc(C(F)(F)F)cc2C(F)(F)F)c2ccc(F)cc2)nn1`, for which the viability, T/C was 91.6% [middle of 13 runs] (compound 0.0316 µM); 102% [middle of 13 runs] (compound 0.1 µM); 101% [middle of 13 runs] (compound 0.316 µM); 101% [middle of 13 runs] (compound 1 µM); 102% [middle of 13 runs] (compound 3.16 µM); 105% [middle of 12 runs] (compound 10 µM). Also, under setting [1], the IC50 is > 10 µM.

On to `Nc1ccn(C2OC(CO)C(O)C2(F)F)c(=O)n1` (centres undefined), for which the viability, T/C is, setting by setting: (compound 0.0316 µM) 90% and 87.3% (2×); (compound 0.1 µM) 76.8% and 89.3% and 78.8%; (compound 0.316 µM) 70.9% and 83.7% and 72%; (compound 1 µM) 71.8% and 78.5% and 69%; (compound 3.16 µM) 64.6% and 81.7% and 60.8%; (compound 10 µM) 57.5% and 64.6% and 53%. Further, the IC50 (curve of compound) was > 10 µM.

Regarding `O=C(c1cc(Cc2n[nH]c(=O)c3ccccc23)ccc1F)N1CCN(C(=O)C2CC2)CC1`, the viability, T/C by setting is: (compound 0.0316 µM) 102% and 101% (2×); (compound 0.1 µM) 87.2% and 107% and 101%; (compound 0.316 µM) 102% and 110% and 100%; (compound 1 µM) 99% and 107% and 102%; (compound 3.16 µM) 101% and 102% and 114%; (compound 10 µM) 97.8% and 97.4% and 107%. Further, the IC50 (curve of compound) is > 10 µM.

Regarding `O=c1[nH]cc(F)c(=O)[nH]1`, the viability, T/C reads like this: (compound 0.0316 µM) 105% (2×) and 104%; (compound 0.1 µM) 95.7% and 106% and 103%; (compound 0.316 µM) 93.2% and 102% and 99.6%; (compound 1 µM) 102% and 100% (2×); (compound 3.16 µM) 102% and 115% and 103%; (compound 10 µM) 96% and 111% and 99.7%. The IC50 (curve of compound) is > 10 µM.
